In ChEMBL document CHEMBL1201862, “PubChem BioAssay data set” (2004):
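Results reflect a 48-hour exposure of cells in 96-well plates to compound at five concentrations. GI50 is the concentration that inhibits growth by half.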 Active and inactive are the calls of the source. Rule as the data show it: active = GI50 up to about 1.1 µM and inactive = higher.

What was measured:
Experiment in all cases: DTP human tumour cell line panel, 48 h
[1] = system: A549
[2] = system: COLO 205
[3] = system: HCC 2998
[4] = system: HL-60
[5] = system: Hs-578T
[6] = system: K562
[7] = system: M14
[8] = system: MDA-MB-231
[9] = system: MDA-N
[10] = system: Malme-3M
[11] = system: OVCAR-4
[12] = system: OVCAR-8
[13] = system: SK-MEL-28
[14] = system: SK-OV-3
[15] = system: SN12C
[16] = system: SNB-19
[17] = system: SR
[18] = system: TK-10
[19] = system: UACC-62
[20] = system: RXF 393

Measured: GI50

O=C(/C=C/c1cc(O)c(O)cc1O)OCCc1ccccc1
inactive: [1] > 67.8 µM | [2] 11.2 µM | [3] > 72.1 µM | [4] 1.3 µM | [5] 39.5 µM | [6] 2.28 µM | [7] 14.9 µM | [8] 23.5 µM | [9] 13.2 µM | [10] 13.6 µM | [11] 17.7 µM | [12] 9.57 µM | [13] 21 µM | [14] 26.8 µM | [15] 15.6 µM | [16] 61.7 µM | [17] 5.53 µM | [18] 6.11 µM | [19] 17.9 µM

O=[N+]([O-])c1cc2no[n+]([O-])c2cc1N1CCCCC1
inactive: [1] 11.3 µM | [2] 5.37 µM | [3] 13.2 µM | [4] 1.5 µM | [5] 25.1 µM | [6] 1.43 µM | [7] 2.62 µM | [8] 8.47 µM | [9] 2.59 µM | [11] 2.25 µM | [12] 1.95 µM | [20] 1.51 µM | [13] 7.28 µM | [14] 14 µM | [15] 1.99 µM | [16] 16.3 µM | [17] 2.94 µM | [18] 3.33 µM | [19] 13.4 µM

CCCCN/N=N/c1cn(C2OC(CO)C(O)C2O)c(=O)[nH]c1=O (stereo not given)
inactive: [1] > 100 µM | [2] > 100 µM | [3] > 100 µM | [4] > 100 µM | [5] > 100 µM | [7] > 100 µM | [8] > 100 µM | [9] > 100 µM | [10] > 100 µM | [11] > 100 µM | [12] > 100 µM | [20] > 100 µM | [13] > 100 µM | [14] > 100 µM | [15] > 100 µM | [16] > 100 µM | [17] > 100 µM | [18] > 100 µM | [19] > 100 µM

Cc1nnc2n1N=C(c1ccccc1)/C(=C/c1ccc(-c3ccc(Cl)cc3)o1)S2
inactive: [1] 18 µM | [2] 25.2 µM | [3] 7.19 µM | [4] 4.36 µM | [5] 54.3 µM | [6] 7.85 µM | [7] 17.9 µM | [8] 15.1 µM | [9] 11.6 µM | [10] 17.3 µM | [11] 15.7 µM | [20] 10.8 µM | [14] 32.1 µM | [15] 15.6 µM | [16] 16.6 µM | [17] 5.77 µM | [18] 13.4 µM | [19] 12.4 µM

COC(CC1(CCNc2ccccc2)C(=O)N(COCC[Si](C)(C)C)c2ccccc21)OC (stereo not given)
inactive: [1] 15.5 µM | [2] 2.69 µM | [3] 2.11 µM | [4] 4.35 µM | [5] 18 µM | [6] 8.41 µM | [7] 2.51 µM | [8] 19.3 µM | [9] 24 µM | [11] 13.6 µM | [12] 18.4 µM | [20] 12.5 µM | [13] 6.98 µM | [14] 15.2 µM | [15] 23.2 µM | [16] 15.5 µM | [17] > 32.8 µM | [18] 14.8 µM | [19] 14.5 µM

C=C1CC(C)(COc2cc(=O)oc3ccccc23)OC1=O (stereo not given)
inactive: [1] 14 µM | [2] 2.03 µM | [3] 25.2 µM | [4] 1.17 µM | [5] 7.74 µM | [6] 2 µM | [7] 1.42 µM | [8] 7.38 µM | [9] 4.13 µM | [10] 2.04 µM | [11] 3.87 µM | [12] 5.21 µM | [13] 3.05 µM | [14] 10.6 µM | [15] 8.3 µM | [16] 15.8 µM | [17] 2.88 µM | [18] 1.77 µM | [19] 2.48 µM

COc1ccc(CCN2CCOCC2)cc1
inactive: [1] > 100 µM | [2] > 100 µM | [3] > 100 µM | [4] > 100 µM | [5] > 100 µM | [6] > 100 µM | [7] > 100 µM | [8] > 100 µM | [9] > 100 µM | [10] > 100 µM | [20] > 100 µM | [13] > 100 µM | [14] > 100 µM | [15] > 100 µM | [16] > 100 µM | [17] > 100 µM | [18] > 100 µM | [19] > 100 µM

O=[N+]([O-])c1ccc(C2=NOC(c3ccccc3)N2C23CC4CC(CC(C4)C2)C3)cc1 (stereo not given)
inactive: [1] 32.9 µM | [2] 30 µM | [3] 39 µM | [4] 26.6 µM | [5] 19.5 µM | [6] 19.1 µM | [7] 32.7 µM | [8] 31.4 µM | [9] 26.7 µM | [10] 25.1 µM | [11] 39.1 µM | [12] 21.5 µM | [13] 58.5 µM | [14] 43.2 µM | [15] 46 µM | [16] > 10 µM | [17] > 10 µM | [18] 37.2 µM | [19] 20.8 µM

C=C(Br)CNC(=O)Nc1ccc(Cl)c(Cl)c1
inactive: [1] 21.5 µM | [2] 16.9 µM | [3] 18.5 µM | [4] 15.9 µM | [5] 22.7 µM | [6] 23.8 µM | [7] 22.2 µM | [8] 15.2 µM | [9] 27.3 µM | [10] 20.1 µM | [11] 29.5 µM | [20] 18.5 µM | [13] 28.1 µM | [14] 29 µM | [15] 25.2 µM | [16] 21.7 µM | [17] 30.9 µM | [18] 25.8 µM | [19] 18.8 µM

C(=N\Nc1nnc(-c2nnc(N/N=C/c3ccccc3)o2)o1)/c1ccccc1
inactive: [1] > 10 µM | [2] > 10 µM | [3] > 10 µM | [4] > 10 µM | [5] 6.19 µM | [6] > 10 µM | [7] > 10 µM | [8] > 10 µM | [9] > 10 µM | [10] > 10 µM | [11] > 10 µM | [12] > 10 µM | [20] > 10 µM | [13] > 10 µM | [15] > 10 µM | [16] > 10 µM | [17] > 10 µM | [18] > 10 µM | [19] > 10 µM

COc1ccccc1Cn1nc(OC)c2cc([N+](=O)[O-])ccc21
inactive: [1] 63.2 µM | [2] > 100 µM | [3] > 100 µM | [4] > 100 µM | [5] 3.61 µM | [6] > 100 µM | [7] > 100 µM | [8] > 41.1 µM | [9] > 100 µM | [10] > 87.5 µM | [11] 13.4 µM | [12] 31.1 µM | [20] 1.88 µM | [13] > 91 µM | [15] > 69 µM | [16] 11.1 µM | [17] > 100 µM | [18] 12.5 µM

Nc1ncnc2c1ncn2C1OC(CO)C(O)C(O)C1O (stereo not given)
inactive: [1] > 100 µM | [2] > 100 µM | [3] > 100 µM | [4] > 100 µM | [5] > 100 µM | [6] > 100 µM | [7] > 100 µM | [8] > 100 µM | [9] > 100 µM | [10] > 100 µM | [11] > 100 µM | [12] > 100 µM | [13] > 100 µM | [15] > 100 µM | [16] > 100 µM | [17] > 100 µM | [18] > 100 µM

O=C(/C=C/c1ccc(F)c(F)c1)OCCc1ccccc1
inactive: [1] > 100 µM | [2] > 100 µM | [3] > 100 µM | [4] > 100 µM | [5] > 100 µM | [6] 51.3 µM | [7] > 100 µM | [8] > 100 µM | [9] 73.5 µM | [10] > 100 µM | [11] 91.8 µM | [12] > 100 µM | [13] > 100 µM | [14] > 100 µM | [15] > 100 µM | [16] > 100 µM | [17] 90.6 µM | [18] > 100 µM | [19] > 100 µM

COC1(O)C(=O)c2ccccc2OC1(OC)c1ccccc1 (stereo not given)
inactive: [1] > 100 µM | [2] > 100 µM | [3] > 100 µM | [4] 50.4 µM | [5] > 100 µM | [6] 42 µM | [7] > 100 µM | [8] > 100 µM | [9] > 100 µM | [10] > 100 µM | [11] > 100 µM | [12] > 100 µM | [20] > 100 µM | [13] > 100 µM | [15] > 100 µM | [16] > 100 µM | [17] 50.4 µM | [18] > 100 µM | [19] > 100 µM

O=C1Nc2ccccc2/C1=C1\C(=O)Nc2ccccc21 [ISOINDIGO]
inactive: [1] 27.4 µM | [2] 21.9 µM | [3] 23.2 µM | [5] 49.2 µM | [6] 7.48 µM | [7] 32.1 µM | [8] 27.8 µM | [9] 24.5 µM | [10] 13.2 µM | [11] 10 µM | [12] 18.8 µM | [20] 3.56 µM | [13] 91.2 µM | [14] 59.7 µM | [15] 19 µM | [16] 22.5 µM | [17] 2.82 µM | [18] 31.6 µM | [19] 17.3 µM
